Experimental data reported in PubChem BioAssay AID254 (DTP/NCI, 2004).
“And” between values parts separate entries of the source, which are not always exact repeats. Equal values may be shown once. Toxic doses and inconclusive results are not listed.

Tested on: L1210 leukemia iv in BDF1 mice, survival T/C
Assay: NCI In Vivo Anticancer Drug Screen. Data for tumor model L1210 Leukemia (intravenous) in B6D2F1 (BDF1) mice
Settings: endpoint: mean survival time, higher = longer survival
Description: The antitumor activity of compounds was measured in mice bearing transplantable tumors. Survival or tumor size were measured and the results are expressed as the measurement made in the treated group (T) divided by the measurement made in the vehicle treated control group (C). The tumor model used in this assay is L1210 Leukemia (intravenous) in B6D2F1 (BDF1) mice

SMILES: O=NN(CCCl)C(=O)NC1CCCCC1
- T/C (dose: 5.1 mg/kg/injection, schedule: Q01DX001 (ip), vehicle: carboxymethylcellulose (CMC)): 102 % of control
- T/C (dose: 10.0 mg/kg/injection, schedule: Q04DX004 (ip), vehicle: carboxymethylcellulose (CMC)): 124 % of control
- T/C (dose: 15.0 mg/kg/injection, schedule: Q01DX001 (ip), vehicle: Klucel (hydroxypropylcellulose) (HPC)): 170 % of control
- T/C (dose: 16.0 mg/kg/injection, schedule: Q04DX004 (ip), vehicle: carboxymethylcellulose (CMC)): 160 % of control
- T/C (dose: 16.6 mg/kg/injection, schedule: Q01DX001 (ip), vehicle: carboxymethylcellulose (CMC)): 163 % of control and 174 % of control
- T/C (dose: 17.0 mg/kg/injection, schedule: Q01DX001 (ip), vehicle: carboxymethylcellulose (CMC)): 176 % of control
- T/C (dose: 18.0 mg/kg/injection, schedule: Q01DX001 (ip), vehicle: Klucel (hydroxypropylcellulose) (HPC)): 177 % of control
- T/C (dose: 21.0 mg/kg/injection, schedule: Q01DX001 (ip), vehicle: carboxymethylcellulose (CMC)): 218 % of control and 241 % of control
- T/C (dose: 22.0 mg/kg/injection, schedule: Q01DX001 (ip), vehicle: Klucel (hydroxypropylcellulose) (HPC)): 227 % of control
- T/C (dose: 22.0 mg/kg/injection, schedule: Q01DX001 (ip), vehicle: carboxymethylcellulose (CMC)): 192 % of control and 225 % of control
- T/C (dose: 22.0 mg/kg/injection, schedule: Q04DX004 (ip), vehicle: carboxymethylcellulose (CMC)): 360 % of control
- T/C (dose: 27.0 mg/kg/injection, schedule: Q01DX001 (ip), vehicle: Klucel (hydroxypropylcellulose) (HPC)): 161 % of control
- T/C (dose: 30.0 mg/kg/injection, schedule: Q01DX001 (ip), vehicle: carboxymethylcellulose (CMC)): 346 % of control
- T/C (dose: 33.0 mg/kg/injection, schedule: Q04DX004 (ip), vehicle: carboxymethylcellulose (CMC)): 709 % of control
- T/C (dose: 33.5 mg/kg/injection, schedule: Q01DX001 (ip), vehicle: Klucel (hydroxypropylcellulose) (HPC)): 574 % of control
- T/C (dose: 37.5 mg/kg/injection, schedule: Q01DX001 (ip), vehicle: carboxymethylcellulose (CMC)): 534 % of control and 560 % of control and 606 % of control
- T/C (dose: 40.0 mg/kg/injection, schedule: Q01DX001 (ip), vehicle: Klucel (hydroxypropylcellulose) (HPC)): 222 % of control
- T/C (dose: 40.0 mg/kg/injection, schedule: Q01DX001 (ip), vehicle: carboxymethylcellulose (CMC)): 368 % of control
- T/C (dose: 42.0 mg/kg/injection, schedule: Q01DX001 (ip), vehicle: Klucel (hydroxypropylcellulose) (HPC)): 438 % of control
- T/C (dose: 43.0 mg/kg/injection, schedule: Q01DX001 (ip), vehicle: carboxymethylcellulose (CMC)): 633 % of control and 707 % of control
- T/C (dose: 50.0 mg/kg/injection, schedule: Q01DX001 (ip), vehicle: Klucel (hydroxypropylcellulose) (HPC)): 407 % of control
- T/C (dose: 56.0 mg/kg/injection, schedule: Q01DX001 (ip), vehicle: Klucel (hydroxypropylcellulose) (HPC)): 464 % of control
- T/C (dose: 60.0 mg/kg/injection, schedule: Q01DX001 (ip), vehicle: Klucel (hydroxypropylcellulose) (HPC)): 336 % of control
- T/C (dose: 62.5 mg/kg/injection, schedule: Q01DX001 (ip), vehicle: carboxymethylcellulose (CMC)): 652 % of control and 662 % of control and 775 % of control
- T/C (dose: 70.0 mg/kg/injection, schedule: Q01DX001 (ip), vehicle: Klucel (hydroxypropylcellulose) (HPC)): 519 % of control
- T/C (dose: 75.0 mg/kg/injection, schedule: Q01DX001 (ip), vehicle: carboxymethylcellulose (CMC)): 826 % of control
- T/C (dose: 86.0 mg/kg/injection, schedule: Q01DX001 (ip), vehicle: carboxymethylcellulose (CMC)): 242 % of control and 297 % of control
- T/C (dose: 90.0 mg/kg/injection, schedule: Q01DX001 (ip), vehicle: Klucel (hydroxypropylcellulose) (HPC)): 522 % of control

SMILES: O=P1(N(CCCl)CCCl)NCCCO1 (stereo not given)
- T/C (dose: 28.0 mg/kg/injection, schedule: Q01DX001 (ip), vehicle: saline): 106 % of control and 109 % of control
- T/C (dose: 60.0 mg/kg/injection, schedule: Q01DX001 (ip), vehicle: saline): 155 % of control and 165 % of control
- T/C (dose: 64.0 mg/kg/injection, schedule: Q01DX001 (ip), vehicle: saline): 169 % of control
- T/C (dose: 75.0 mg/kg/injection, schedule: Q01DX001 (ip), vehicle: saline): 154 % of control and 164 % of control and 171 % of control
- T/C (dose: 80.0 mg/kg/injection, schedule: Q01DX001 (ip), vehicle: saline): 158 % of control and 165 % of control
- T/C (dose: 80.0 mg/kg/injection, schedule: Q04DX004 (ip), vehicle: saline): 206 % of control
- T/C (dose: 83.0 mg/kg/injection, schedule: Q01DX001 (ip), vehicle: saline): 170 % of control
- T/C (dose: 118.0 mg/kg/injection, schedule: Q01DX001 (ip), vehicle: saline): 162 % of control and 202 % of control
- T/C (dose: 120.0 mg/kg/injection, schedule: Q04DX004 (ip), vehicle: saline): 285 % of control
- T/C (dose: 225.0 mg/kg/injection, schedule: Q01DX001 (ip), vehicle: saline): 390 % of control and 290 % of control and 304 % of control
- T/C (dose: 234.0 mg/kg/injection, schedule: Q01DX001 (ip), vehicle: saline): 522 % of control and 302 % of control
- T/C (dose: 468.0 mg/kg/injection, schedule: Q01DX001 (ip), vehicle: saline): 500 % of control
